Reference: patent publication US8580809B2, “Filamin A-binding anti-inflammatory analgesic” (Pain Therapeutics, Inc., priority 2009, dated 2013)

Key:
[1] = system: primary human astrocytes; experiment: LPS-induced cytokine release from primary human astrocytes; assay type: cell-based; settings: 2 hours prior to LPS and 24 hours
[2] = Mouse hot-water tail-flick test; assay type: in vivo; settings: for mean maximum antinociception amount: 56 mg/kg
Description: The mouse “tail flick” test was used to assay the relative antinociceptive activity of compositions containing a compound to be assayed. This assay was substantially that disclosed by Xie et al., 2005 J. Neurosci 25:409-416.
The mouse hot-water tail-flick test was performed by placing the distal third of the tail in a water bath maintained at 52° C. The latency until tail withdrawal from the bath was determined and compared among the treatments. A 10 second cutoff was used to avoid tissue damage. Data are converted to percentage of antinociception by the following formula: (response latency−baseline latency)/(cutoff−baseline latency)×100 to generate dose-response curves. […] Relative potency was determined as a ratio of the A50 values.
To assess tolerance to the antinociceptive effect, the compound was administered twice daily for 7 days at an A90 dose (dose that results in a 90% antinociceptive effect in the 52° C. warm-water tail-flick test), and the tail-flick test was performed daily after the a.m. dose.

[3] = biological target: T1, mu opiate receptor (MOR) (Rattus norvegicus, UniProt P33535); experiment: MOR agonist activity using [35S]GTPγS binding assay in striatal membranes; assay type: biochemical; settings: for MOR agonist activity, [35S]GTPγS binding to Gαo, FLNA-binding compound as agonist 0.1 μM: 0.1 μM compound; for MOR agonist activity, [35S]GTPγS binding to Gαo, FLNA-binding compound as agonist 0.1 μM / MOR agonist activity, [35S]GTPγS binding to Gαo, FLNA-binding compound as agonist 1 μM: striatal membranes; for MOR agonist activity, [35S]GTPγS binding to Gαo, 1 μM + BFNA: 1 μM compound + 1 μM β-funaltrexamine; for MOR agonist activity, [35S]GTPγS binding to Gαo, FLNA-binding compound as agonist 1 μM: 1 μM compound
T1 construct: from tissue; host or cells: rat striatal membrane preparation
T1 sequence (P33535 whole entry): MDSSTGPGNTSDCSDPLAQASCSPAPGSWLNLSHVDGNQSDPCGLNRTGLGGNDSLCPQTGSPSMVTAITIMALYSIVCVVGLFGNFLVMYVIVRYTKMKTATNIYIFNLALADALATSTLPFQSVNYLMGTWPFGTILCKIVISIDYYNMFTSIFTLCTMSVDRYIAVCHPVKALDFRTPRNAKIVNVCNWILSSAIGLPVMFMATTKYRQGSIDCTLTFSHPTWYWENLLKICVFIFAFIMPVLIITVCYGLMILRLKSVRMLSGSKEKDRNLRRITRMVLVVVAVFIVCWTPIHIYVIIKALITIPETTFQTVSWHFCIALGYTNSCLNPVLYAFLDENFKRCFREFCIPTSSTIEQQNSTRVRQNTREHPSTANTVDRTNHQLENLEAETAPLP
Description: To assess the mu opiate receptor (MOR) agonist activity of positive compounds from the FLNA screening, compounds were tested in a [^35S]GTPγS binding assay using striatal membranes.
Striatal tissue was homogenized in 10 volumes of ice cold 25 mM HEPES buffer, pH 7.4, which contained 1 mM EGTA, 100 mM sucrose, 50 μg/ml leupeptin, 0.04 mM PMSF, 2 μg/ml soybean trypsin inhibitor and 0.2% 2-mercaptoethanol. The homogenates were centrifuged at 800×g for 5 minutes and the supernatants were centrifuged at 49,000×g for 20 minutes.
The resultant striatal membrane preparation (200 μg) was admixed and maintained (incubated) at 30° C. for 5 minutes in reaction buffer as above that additionally contained 1 mM MgCl2 and 0.5 nM [^35S]GTPγS (0.1 μCi/assay, PerkinElmer Life and Analytical Sciences) in a total volume of 250 μl and continued for 5 minutes in the absence or presence of 0.1-10 μM of an assayed compound of interest. The reaction was terminated by dilution with 750 μl of ice-cold reaction buffer that contained 20 mM MgCl2 and 1 mM EGTA and immediate centrifugation at 16,000×g for 5 minutes.
The resulting pellet was solubilized by sonicating for 10 seconds in 0.5 ml of immunoprecipitation buffer containing 0.5% digitonin, 0.2% sodium cholate and 0.5% NP-40. Normal rabbit serum (1 μl) was added to 1 ml of lysate and incubated at 25° C. for 30 minutes. Nonspecific immune complexes were removed by incubation with 25 μl of protein A/G-conjugated agarose beads at 25° C. for 30 minutes followed by centrifugation at 5,000×g at 4° C. for 5 minutes. The supernatant was divided and separately incubated at 25° C. for 30 minutes with antibodies raised against Gαo proteins (1:1,000 dilutions).
The immunocomplexes so formed were collected by incubation at 25° C. for 30 minutes with 40 μl of agarose-conjugated protein A/G beads and centrifugation at 5,000×g at 4° C. for 5 minutes. The pellet was washed and suspended in buffer containing 50 mM Tris-HCl, pH 8.0, and 1% NP-40. The radioactivity in the suspension was determined by liquid scintillation spectrometry. […] DAMGO (H-Tyr-D-Ala-Gly-N-MePhe-Gly-OH; 1 or 10 μM) was used as a positive control.

[4] = biological target: MOR (Rattus norvegicus, UniProt P33535); experiment: Relative Gs/Go switching: MOR-G protein coupling in organotypic striatal slice cultures; settings: for Go (MOR level in anti-Gαo immunoprecipitates), average / Gs/Go-Coupled Ratio, average / Gs/olf (MOR level in anti-Gαs/olf immunoprecipitates), average: striatal slice culture
Sequence of MOR (P33535 whole entry): as above
Description: The threshold for significance was p<0.05.
Striatal slices (200 μM thickness) were prepared using a McIlwain tissue chopper (Mickle Laboratory Engineering Co., Surrey, UK).

[5] = biological target: FLNA VAKGL pentapeptide (Bn-VAKGL) (Homo sapiens, UniProt P21333); experiment: FITC-NLX-based FLNA screening assay (FLNA peptide binding assay)
Description: Streptavidin-coated 96-well plates (Reacti-Bind™ NeutrAvidin™ High binding capacity coated 96-well plate, Pierce-ENDOGEN) are washed three times with 200 μl of 50 mM Tris HCl, pH 7.4 according to the manufacturer's recommendation.
Bn-VAKGL peptide (0.5 mg/plate) is dissolved in 50 μl DMSO and then added to 4450 μl of 50 mM Tris HCl, pH 7.4, containing 100 mM NaCl and protease inhibitors (binding medium) as well as 500 μl superblock in PBS (Pierce-ENDOGEN) [final concentration for DMSO: 1%].
The washed streptavidin-coated plates are contacted with 5 μg/well of Bn-VAKGL (100 μl) for 1 hour (incubated) with constant shaking at 25° C. [50 μl of Bn-VAKGL peptide solution from B+50 μl binding medium, final concentration for DMSO: 0.5%]. At the end of the incubation, the plate is washed three times with 200 μl of ice-cold 50 mM Tris HCl, pH 7.4.
The final assay volume is 100 μl. At the end of incubation, the plate is washed twice with 100 μl of ice-cold 50 mM Tris, pH 7.4. The signal, bound-FITC-NLX is detected using a DTX-880 multi-mode plate reader (Beckman).
To screen the medicinal chemistry analogs (new compounds), each compound solution (1 μl) is added to the Bn-VAKGL coated streptavidin plate with 50 μl/well of binding medium followed immediately with addition of 50 μl of FITC-NLX (total assay volume/well is 100 μl). The final screening concentration for each compound is 10 μM. […]

[6] = biological target: filamin A (Homo sapiens, UniProt P21333); settings: read-out: affinity of binding to filamin A; cited from earlier work
Sequence of filamin A (P21333 whole entry): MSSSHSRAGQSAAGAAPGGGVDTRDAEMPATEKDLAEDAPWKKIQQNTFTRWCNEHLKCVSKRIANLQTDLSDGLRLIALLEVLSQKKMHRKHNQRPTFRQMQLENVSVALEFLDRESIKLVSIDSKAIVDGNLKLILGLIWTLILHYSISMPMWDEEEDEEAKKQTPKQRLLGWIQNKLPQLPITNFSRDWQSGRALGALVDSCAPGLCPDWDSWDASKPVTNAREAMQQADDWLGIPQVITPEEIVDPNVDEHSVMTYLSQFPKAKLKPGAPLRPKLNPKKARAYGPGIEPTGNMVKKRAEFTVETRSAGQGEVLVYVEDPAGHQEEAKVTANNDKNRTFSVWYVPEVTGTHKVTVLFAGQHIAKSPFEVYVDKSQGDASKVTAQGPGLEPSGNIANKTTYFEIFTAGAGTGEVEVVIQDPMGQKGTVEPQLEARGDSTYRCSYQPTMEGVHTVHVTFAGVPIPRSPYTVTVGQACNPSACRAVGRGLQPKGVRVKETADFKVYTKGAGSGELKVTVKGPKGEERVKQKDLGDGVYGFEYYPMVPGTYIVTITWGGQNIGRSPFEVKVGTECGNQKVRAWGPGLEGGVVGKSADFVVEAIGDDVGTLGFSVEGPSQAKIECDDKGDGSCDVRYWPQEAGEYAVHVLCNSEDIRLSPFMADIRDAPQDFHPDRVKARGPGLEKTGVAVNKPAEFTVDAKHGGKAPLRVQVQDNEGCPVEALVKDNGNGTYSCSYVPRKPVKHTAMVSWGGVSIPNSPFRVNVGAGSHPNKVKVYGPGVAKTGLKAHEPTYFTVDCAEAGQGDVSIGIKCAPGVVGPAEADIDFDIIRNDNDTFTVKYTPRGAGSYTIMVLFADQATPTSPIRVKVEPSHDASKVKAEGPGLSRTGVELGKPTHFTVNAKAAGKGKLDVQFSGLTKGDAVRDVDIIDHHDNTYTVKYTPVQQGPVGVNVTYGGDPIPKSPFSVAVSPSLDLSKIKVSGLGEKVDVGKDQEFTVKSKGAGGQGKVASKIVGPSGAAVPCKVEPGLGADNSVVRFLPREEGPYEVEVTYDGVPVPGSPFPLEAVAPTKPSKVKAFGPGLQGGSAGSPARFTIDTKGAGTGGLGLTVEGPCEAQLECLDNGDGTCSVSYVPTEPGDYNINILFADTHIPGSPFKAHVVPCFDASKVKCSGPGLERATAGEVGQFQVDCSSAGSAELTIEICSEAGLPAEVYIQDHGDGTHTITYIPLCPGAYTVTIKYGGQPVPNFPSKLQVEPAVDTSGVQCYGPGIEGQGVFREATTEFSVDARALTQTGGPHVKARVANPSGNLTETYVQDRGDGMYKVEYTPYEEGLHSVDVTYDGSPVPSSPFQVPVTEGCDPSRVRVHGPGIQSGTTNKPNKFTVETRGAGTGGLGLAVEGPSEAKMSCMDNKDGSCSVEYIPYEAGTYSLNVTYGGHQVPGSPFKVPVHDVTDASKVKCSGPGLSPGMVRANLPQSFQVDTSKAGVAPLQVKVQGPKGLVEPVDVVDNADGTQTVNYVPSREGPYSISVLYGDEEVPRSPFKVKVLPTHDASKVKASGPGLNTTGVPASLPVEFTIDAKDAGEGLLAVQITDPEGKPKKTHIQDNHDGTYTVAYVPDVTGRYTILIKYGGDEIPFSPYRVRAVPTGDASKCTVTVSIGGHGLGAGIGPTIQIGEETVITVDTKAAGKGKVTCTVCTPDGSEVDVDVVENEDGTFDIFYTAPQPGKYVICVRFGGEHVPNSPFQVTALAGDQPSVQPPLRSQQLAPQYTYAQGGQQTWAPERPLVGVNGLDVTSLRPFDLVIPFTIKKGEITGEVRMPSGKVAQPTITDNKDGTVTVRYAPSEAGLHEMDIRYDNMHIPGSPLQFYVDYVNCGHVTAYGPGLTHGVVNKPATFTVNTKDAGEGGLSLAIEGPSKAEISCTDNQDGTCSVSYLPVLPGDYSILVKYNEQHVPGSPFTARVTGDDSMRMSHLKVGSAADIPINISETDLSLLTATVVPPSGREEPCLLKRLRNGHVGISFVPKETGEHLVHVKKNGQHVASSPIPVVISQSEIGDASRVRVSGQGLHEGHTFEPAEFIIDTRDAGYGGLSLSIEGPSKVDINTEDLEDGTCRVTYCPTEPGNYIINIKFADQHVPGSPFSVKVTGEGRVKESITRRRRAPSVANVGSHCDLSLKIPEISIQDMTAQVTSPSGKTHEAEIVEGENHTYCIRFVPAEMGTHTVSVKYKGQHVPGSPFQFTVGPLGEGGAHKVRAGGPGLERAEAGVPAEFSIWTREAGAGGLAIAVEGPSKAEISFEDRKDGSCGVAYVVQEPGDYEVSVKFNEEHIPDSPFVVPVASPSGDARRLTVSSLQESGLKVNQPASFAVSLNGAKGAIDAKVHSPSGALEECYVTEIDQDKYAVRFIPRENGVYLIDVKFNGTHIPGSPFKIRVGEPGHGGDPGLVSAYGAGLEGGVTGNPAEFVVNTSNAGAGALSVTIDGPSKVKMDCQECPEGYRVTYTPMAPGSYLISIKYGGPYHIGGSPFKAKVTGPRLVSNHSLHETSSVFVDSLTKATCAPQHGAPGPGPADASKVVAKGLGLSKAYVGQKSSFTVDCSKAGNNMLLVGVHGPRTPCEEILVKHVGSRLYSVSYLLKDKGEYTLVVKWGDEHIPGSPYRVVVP

## C=CCN1CC[C@]23c4c5ccc(O)c4O[C@H]2C(=O)CC[C@]3(O)[C@H]1C5 [(+)Naloxone, (+)naloxone, reference compound]
[1]; 10 pM
  IL-1β Average % (±SEM): 75.9 (4.5) %
  IL-6 Average % (±SEM): 56.9 (4.4) %
  TNF-α Average % (±SEM): 58.6 (2.0) %
[1]; 1 nM
  IL-1β Average % (±SEM): 10.5 (4.8) %
  IL-6 Average % (±SEM): 6.8 (4.3) %
  TNF-α Average % (±SEM): 9.2 (6.0) %

## CS(=O)(=O)c1ccc(S(=O)(=O)N2CCC3(CC2)OCCN3S(=O)(=O)c2ccc(S(C)(=O)=O)cc2)cc1 [Compound C0009]
[2]; oral, at about 10 minutes
  mean maximum antinociception amount: about 50%
[3]
  MOR agonist activity, [35S]GTPγS binding to Gαo, FLNA-binding compound as agonist 0.1 μM: 146.3%
  MOR agonist activity, [35S]GTPγS binding to Gαo, 1 μM + BFNA: 26.4%
  MOR agonist activity, [35S]GTPγS binding to Gαo, FLNA-binding compound as agonist 1 μM: 256.2%

## CC(=O)c1ccc(S(=O)(=O)N2CCC3(CC2)OCCN3S(=O)(=O)c2ccc(C(C)=O)cc2)cc1 [Compound C0011]
[2]; oral, at about 10-20 minutes
  mean maximum antinociception amount: about 70%
[3]
  MOR agonist activity, [35S]GTPγS binding to Gαo, FLNA-binding compound as agonist 0.1 μM: 217.0%
  MOR agonist activity, [35S]GTPγS binding to Gαo, 1 μM + BFNA: 19.0%
  MOR agonist activity, [35S]GTPγS binding to Gαo, FLNA-binding compound as agonist 1 μM: 305.0%
[4]; 10 μM
  Go (MOR level in anti-Gαo immunoprecipitates), average: 1603.3
  Gs/Go-Coupled Ratio, average: 0.332
  Gs/olf (MOR level in anti-Gαs/olf immunoprecipitates), average: 534.3
[4]; 100 μM
  Go (MOR level in anti-Gαo immunoprecipitates), average: 1598.8
  Gs/Go-Coupled Ratio, average: 0.420
  Gs/olf (MOR level in anti-Gαs/olf immunoprecipitates), average: 658.2

## O=C(c1ccc([N+](=O)[O-])cc1)N1CCC2(CC1)OCCN2S(=O)(=O)c1ccc([N+](=O)[O-])cc1 [Compound C0033]
[5]; read-out: Percent inhibition of FITC-NLX binding, 0.1 μM
  inhibition at 0.1 µM: 48.4%
[5]; read-out: Percent inhibition of FITC-NLX binding, 1 μM
  inhibition at 1 µM: 51.3%
[3]
  MOR agonist activity, [35S]GTPγS binding to Gαo, FLNA-binding compound as agonist 0.1 μM: 134.5%
  MOR agonist activity, [35S]GTPγS binding to Gαo, 1 μM + BFNA: 76.6%
  MOR agonist activity, [35S]GTPγS binding to Gαo, FLNA-binding compound as agonist 1 μM: 186.4%

## COc1ccc(S(=O)(=O)N2CCOC23CCN(S(=O)(=O)c2ccc(C(C)=O)cc2)CC3)cc1 [Compound C0047]
[2]; at about 20-30 minutes
  mean maximum antinociception amount: about 35%
[3]
  MOR agonist activity, [35S]GTPγS binding to Gαo, FLNA-binding compound as agonist 0.1 μM: 142.2%
  MOR agonist activity, [35S]GTPγS binding to Gαo, 1 μM + BFNA: 80.1%
  MOR agonist activity, [35S]GTPγS binding to Gαo, FLNA-binding compound as agonist 1 μM: 206.1%

## CC(=O)c1ccc(C(=O)N2CCC3(CC2)OCCN3S(=O)(=O)c2ccc(C(C)=O)cc2)cc1 [Compound C0052]
[2]; oral, at about 20 minutes
  mean maximum antinociception amount: about 30%
[3]
  MOR agonist activity, [35S]GTPγS binding to Gαo, FLNA-binding compound as agonist 0.1 μM: 108.4%
  MOR agonist activity, [35S]GTPγS binding to Gαo, 1 μM + BFNA: 42.7%
  MOR agonist activity, [35S]GTPγS binding to Gαo, FLNA-binding compound as agonist 1 μM: 162.8%

## O=C1CN(Cc2ccccc2)C2(CCN(S(=O)(=O)c3cc(Cl)c(O)c(Cl)c3)CC2)N1 [Compound C0139M]
[3]
  MOR agonist activity, [35S]GTPγS binding to Gαo, FLNA-binding compound as agonist 0.1 μM: 156.1%
  MOR agonist activity, [35S]GTPγS binding to Gαo, 1 μM + BFNA: 51.0%
  MOR agonist activity, [35S]GTPγS binding to Gαo, FLNA-binding compound as agonist 1 μM: 206.6%
[1]; 10 pM
  IL-1β Average % (±SEM): 83.4 (3.0) %
  IL-6 Average % (±SEM): 76.6 (3.1) %
  TNF-α Average % (±SEM): 77.0 (3.2) %
[1]; 1 nM
  IL-1β Average % (±SEM): 78.2 (0.7) %
  IL-6 Average % (±SEM): 80.1 (7.0) %
  TNF-α Average % (±SEM): 77.5 (1.8) %
[1]; 100 nM
  IL-1β Average % (±SEM): 70.5 (1.6) %
  IL-6 Average % (±SEM): 80.2 (6.3) %
  TNF-α Average % (±SEM): 72.7 (2.5) %
[1]; 100 fM
  IL-1β Average % (±SEM): 84.5 (2.6) %
  IL-6 Average % (±SEM): 82.6 (1.6) %
  TNF-α Average % (±SEM): 74.8 (4.3) %

## O=S(=O)(c1csc2ccccc12)N1CCC2(CC1)OCCN2S(=O)(=O)c1csc2ccccc12 [Compound C0150M]
[3]
  MOR agonist activity, [35S]GTPγS binding to Gαo, FLNA-binding compound as agonist 0.1 μM: 167.1%
  MOR agonist activity, [35S]GTPγS binding to Gαo, 1 μM + BFNA: 158.1%
  MOR agonist activity, [35S]GTPγS binding to Gαo, FLNA-binding compound as agonist 1 μM: 423.1%

## COc1ccc(NC(=O)N2CCC3(CC2)OCCN3C(=O)Nc2ccc(OC)cc2)cc1 [Compound C0151M]
[3]
  MOR agonist activity, [35S]GTPγS binding to Gαo, FLNA-binding compound as agonist 0.1 μM: 346.8%
  MOR agonist activity, [35S]GTPγS binding to Gαo, 1 μM + BFNA: 212.8%
  MOR agonist activity, [35S]GTPγS binding to Gαo, FLNA-binding compound as agonist 1 μM: 397.6%

## C[C@@H](NC(=O)[C@@H](N)Cc1ccc(O)cc1)C(=O)NCC(=O)N(C)[C@@H](Cc1ccccc1)C(=O)NCCO [DAMGO, reference compound]
[3]
  MOR agonist activity, [35S]GTPγS binding to Gαo, FLNA-binding compound as agonist 0.1 μM: 168.5%
  MOR agonist activity, [35S]GTPγS binding to Gαo, 1 μM + BFNA: 53.2%
  MOR agonist activity, [35S]GTPγS binding to Gαo, FLNA-binding compound as agonist 1 μM: 266.1%

## O=C1CC[C@@]2(O)[C@H]3Cc4ccc(O)c5c4[C@@]2(CCN3CC2CC2)[C@H]1O5 [NTX, naltrexone]
[6]
  Kd: ~4 pM

## C=CCN1CC[C@]23c4c5ccc(O)c4O[C@H]2C(=O)CC[C@@]3(O)[C@H]1C5 [Naloxone, naloxone]
[6]
  Kd: ~4 pM

## COc1ccc2c3c1O[C@H]1C(=O)CC[C@@]4(O)[C@@H](C2)N(C)CC[C@]314 [Oxycodone, oxycodone, reference compound]
[4]; 10 μM
  Go (MOR level in anti-Gαo immunoprecipitates), average: 900.4
[4]; 7 days of twice daily 1-hour exposures, organotypic striatal slice cultures
  switch of μ opioid receptor G protein coupling from Go to Gs: switch from Go to Gs coupling

## CN1CC[C@]23c4c5ccc(O)c4O[C@H]2[C@@H](O)C=C[C@H]3[C@H]1C5 [morphine, reference compound]
[2]; orally administered, mouse, 52° C. tail flick
  A50 value (95% confidence interval): 61.8 (52.4−72.9) mg/kg
